Calls of active or inactive are those of the source. The calls are words filed in the database; no cut-off is given here.
Experiments:
Histamine H1 receptor = Histamine H1 receptor (Rattus norvegicus, UniProt P31390); experiment: Displacement of [3H]pyrilamine from Sprague-Dawley rat H1 receptor assessed as inhibition constant measured after 30 mins by competitive binding assay
[1] = Selectivity index, ratio of IC50 for cytotoxicity against human HMEC-1 cells to IC50 for cytotoxicity against human PC-3 cells; format: toxicity, cell-based; details: HMEC-1 cells and PC-3 cells, read-out: Ratio IC50
[2] = Cytotoxicity against human HMEC-1 cells assessed as cell growth inhibition measured after 72 hrs by MTT assay; format: toxicity, cell-based
K562 [3] = experiment: Cytotoxicity against human K562 cells assessed as cell growth inhibition measured after 72 hrs by MTT assay; format: functional, cell-based; details: K562, 72 h
[4] = biological target: T1, 5-hydroxytryptamine receptor 1A (Rattus norvegicus) (UniProt P19327); experiment: Agonist activity at Sprague-Dawley rat hippocampal membrane 5-HT1A receptor assessed as stimulation of [35S]GTPgammaS binding by measuring maximal efficacy measured after 90 mins by scintillation counter analysis relative to control; format: functional, cell membranes; details: Hippocampus, filed as agonist
T1 sequence (whole entry): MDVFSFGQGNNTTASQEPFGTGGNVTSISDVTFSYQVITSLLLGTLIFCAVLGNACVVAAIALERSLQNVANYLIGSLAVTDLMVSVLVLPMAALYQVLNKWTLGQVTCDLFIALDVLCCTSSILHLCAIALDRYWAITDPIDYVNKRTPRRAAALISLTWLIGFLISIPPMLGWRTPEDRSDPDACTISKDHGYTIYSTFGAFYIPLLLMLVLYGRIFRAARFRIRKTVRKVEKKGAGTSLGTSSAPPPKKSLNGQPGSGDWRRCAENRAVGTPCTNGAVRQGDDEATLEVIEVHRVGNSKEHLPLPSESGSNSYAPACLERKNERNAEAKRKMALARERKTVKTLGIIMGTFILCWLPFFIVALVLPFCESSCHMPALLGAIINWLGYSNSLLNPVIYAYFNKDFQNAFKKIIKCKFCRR

[5] = Selectivity index, ratio of IC50 for cytotoxicity against human HMEC-1 cells to IC50 for cytotoxicity against human MDA-MB-231 cells; format: toxicity, cell-based; details: HMEC-1 cells and MDA-MB-231 cells, read-out: Ratio IC50
[6] = Selectivity index, ratio of IC50 for cytotoxicity against human HMEC-1 cells to IC50 for cytotoxicity against human HepG2 cells; format: toxicity, cell-based; details: HMEC-1 cells and HepG2 cells, read-out: Ratio IC50
K562 [7] = experiment: Antiproliferative activity against human K562 cells assessed as reduction in cell number at IC50 measured after 72 hrs by trypan blue dye based assay relative to control; format: functional; design: scale not given: the % may be the effect or the level left
HMEC-1 [8] = experiment: Induction of apoptosis in human HMEC-1 cells assessed as early apoptotic cells at IC50 incubated for 72 hrs by Annexin V-FITC/PI staining based flow cytometric analysis (reference value: 2.4 %); format: functional
SW480 = experiment: Cytotoxicity against human SW480 cells assessed as cell growth inhibition measured after 72 hrs by MTT assay; format: functional, cell-based; details: SW480, 72 h
K562 [9] = experiment: Induction of apoptosis in human K562 cells assessed as necrotic cells at IC50 incubated for 72 hrs by Annexin V-FITC/PI staining based flow cytometric analysis (reference value: 7.1 %); format: functional
K562 [10] = experiment: Induction of apoptosis in human K562 cells assessed as viable cells at IC50 incubated for 72 hrs by Annexin V-FITC/PI staining based flow cytometric analysis (reference value: 89 %); format: functional
HCT-116 [11] = experiment: Induction of apoptosis in human HCT-116 cells assessed as late apoptotic cells at IC50 incubated for 72 hrs by Annexin V-FITC/PI staining based flow cytometric analysis (reference value: 1.6 %); format: functional
PC-3 = experiment: Cytotoxicity against human PC-3 cells assessed as cell growth inhibition measured after 72 hrs by MTT assay; format: functional, cell-based; details: PC-3, 72 h
[12] = biological target: T2, 5-hydroxytryptamine receptor 1A (Rattus norvegicus, UniProt P19327); experiment: Agonist activity at Sprague-Dawley rat hippocampal membrane 5-HT1A receptor assessed as stimulation of [35S]GTPgammaS binding measured after 90 mins by scintillation counter analysis; format: functional, cell membranes, Hippocampus
T2 sequence (P19327 whole entry): T1 sequence (whole entry)

D(2) dopamine receptor = D(2) dopamine receptor (Rattus norvegicus, UniProt P61169); experiment: Antagonist activity at Sprague-Dawley rat striatum membrane D2 receptor assessed as inhibition of dopamine stimulated [35S]GTPgammaS binding measured after 90 mins by scintillation counter analysis; format: functional, cell membranes
Sequence of D(2) dopamine receptor (P61169 whole entry): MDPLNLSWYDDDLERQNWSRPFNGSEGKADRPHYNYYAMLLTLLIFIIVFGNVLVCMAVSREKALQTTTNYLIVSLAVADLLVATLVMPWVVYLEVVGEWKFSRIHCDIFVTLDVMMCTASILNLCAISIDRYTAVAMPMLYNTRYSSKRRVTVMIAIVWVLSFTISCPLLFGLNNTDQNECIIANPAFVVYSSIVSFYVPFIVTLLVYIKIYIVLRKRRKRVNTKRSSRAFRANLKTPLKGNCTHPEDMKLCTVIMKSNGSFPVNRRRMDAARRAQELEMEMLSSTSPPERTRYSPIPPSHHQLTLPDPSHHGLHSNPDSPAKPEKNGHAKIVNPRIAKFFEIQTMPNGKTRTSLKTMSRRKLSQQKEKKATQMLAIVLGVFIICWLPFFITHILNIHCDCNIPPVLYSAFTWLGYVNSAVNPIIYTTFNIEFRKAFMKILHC

HCT-116 [13] = experiment: Induction of apoptosis in human HCT-116 cells assessed as necrotic cells at IC50 incubated for 72 hrs by Annexin V-FITC/PI staining based flow cytometric analysis (reference value: 0.1 %); format: functional
MDA-MB-231 = experiment: Cytotoxicity against human MDA-MB-231 cells assessed as cell growth inhibition measured after 72 hrs by MTT assay; format: functional, cell-based; details: MDA-MB-231, 72 h
HCT-116 [14] = experiment: Antiproliferative activity against human HCT-116 cells assessed as reduction in cell viability at IC50 measured after 72 hrs by trypan blue dye based assay relative to control; format: functional
HMEC-1 [15] = experiment: Induction of apoptosis in human HMEC-1 cells assessed as late apoptotic cells at IC50 incubated for 72 hrs by Annexin V-FITC/PI staining based flow cytometric analysis (reference value: 4.7 %); format: functional
Rattus norvegicus = species: Rattus norvegicus; experiment: Displacement of [3H]-QNB from Sprague-Dawley rat Muscarinic acetylcholine receptor assessed as inhibition constant measured after 45 mins by competitive binding assay
A549 = experiment: Cytotoxicity against human A549 cells assessed as cell growth inhibition measured after 72 hrs by MTT assay; format: functional, cell-based; details: A549, 72 h
HCT-116 [16] = experiment: Antiproliferative activity against human HCT-116 cells assessed as reduction in cell number at IC50 measured after 72 hrs by trypan blue dye based assay relative to control; format: functional; design: scale not given: the % may be the effect or the level left
[17] = Selectivity index, ratio of IC50 for cytotoxicity against human HMEC-1 cells to IC50 for cytotoxicity against human SW620 cells
K562 [18] = experiment: Induction of apoptosis in human K562 cells assessed as early apoptotic cells at IC50 incubated for 72 hrs by Annexin V-FITC/PI staining based flow cytometric analysis (reference value: 1.3 %); format: functional
[19] = Selectivity index, ratio of IC50 for cytotoxicity against human HMEC-1 cells to IC50 for cytotoxicity against human A549 cells; format: toxicity, cell-based; details: HMEC-1 cells and A549 cells, read-out: Ratio IC50
HMEC-1 [20] = experiment: Induction of apoptosis in human HMEC-1 cells assessed as viable cells at IC50 incubated for 72 hrs by Annexin V-FITC/PI staining based flow cytometric analysis (reference value: 90.6 %); format: functional
K562 [21] = experiment: Induction of apoptosis in human K562 cells assessed as late apoptotic cells at IC50 incubated for 72 hrs by Annexin V-FITC/PI staining based flow cytometric analysis (reference value: […]); format: functional
[22] = Selectivity index, ratio of IC50 for cytotoxicity against human HMEC-1 cells to IC50 for cytotoxicity against human HCT-116 cells; format: toxicity, cell-based; details: HMEC-1 cells and HCT-116 cells, read-out: Ratio IC50
K562 [23] = experiment: Induction of apoptosis in human K562 cells assessed as increase in caspase-3/7 activity at IC50 incubated for 24 hrs by Glo assay relative to control; format: functional
HCT-116 [24] = experiment: Induction of apoptosis in human HCT-116 cells assessed as early apoptotic cells at IC50 incubated for 72 hrs by Annexin V-FITC/PI staining based flow cytometric analysis (reference value: 7.8 %); format: functional

Sequence of Histamine H1 receptor (P31390 whole entry): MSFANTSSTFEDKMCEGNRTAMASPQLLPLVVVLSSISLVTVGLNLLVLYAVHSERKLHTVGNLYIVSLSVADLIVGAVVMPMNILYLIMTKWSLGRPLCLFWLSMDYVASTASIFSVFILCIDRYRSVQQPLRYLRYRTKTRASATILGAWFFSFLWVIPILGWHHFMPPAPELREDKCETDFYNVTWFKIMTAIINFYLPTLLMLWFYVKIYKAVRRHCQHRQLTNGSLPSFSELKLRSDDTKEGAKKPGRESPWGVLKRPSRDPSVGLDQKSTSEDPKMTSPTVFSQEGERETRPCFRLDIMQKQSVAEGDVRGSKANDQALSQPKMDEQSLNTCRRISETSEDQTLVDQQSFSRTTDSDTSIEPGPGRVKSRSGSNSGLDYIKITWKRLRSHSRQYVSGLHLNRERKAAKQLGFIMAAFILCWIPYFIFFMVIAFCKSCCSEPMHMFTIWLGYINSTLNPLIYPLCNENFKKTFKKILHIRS

| SMILES | Ki (Histamine H1 receptor) | selectivity ratio [1] | IC50 at 72 h [2] | IC50 (K562 [3]) | Emax [4] | selectivity ratio [5] | selectivity ratio [6] | Activity (K562 [7]) | Activity (HMEC-1 [8]) | IC50 (SW480) | Activity (K562 [9]) | Activity (K562 [10]) | Activity (HCT-116 [11]) | IC50 (PC-3) | EC50 [12] | IC50 (D(2) dopamine receptor) | Activity (HCT-116 [13]) | IC50 (MDA-MB-231) | Activity (HCT-116 [14]) | Activity (HMEC-1 [15]) | also measured |
| --- | --- | --- | --- | --- | --- | --- | --- | --- | --- | --- | --- | --- | --- | --- | --- | --- | --- | --- | --- | --- | --- |
| COc1ccccc1N1CCN(CCCCN2C(=O)C3C(C2=O)C2(C)C(=O)C3(C)C(c3ccccc3)=C2c2ccccc2)CC1 (stereo unspecified) | 0.3 µM | 2.07 | 30.2 µM | 6.76 µM | 122% | 1.03 | 1.93 | 88% | 2.2% | 7.41 µM | 20.4% | 22.4% | 2.3% | 14.6 µM | 0.006 µM | 11.6 µM | 0.1% | 29.3 µM | 34% | 1.8% | Activity (Rattus norvegicus): inactive; IC50 (A549): 16.2 µM; Activity (HCT-116 [16]): 44%; Ratio IC50 [17]: 6.3; Activity (K562 [18]): 5.9%; selectivity ratio [19]: 1.86; Activity (HMEC-1 [20]): 94.3%; Activity (K562 [21]): 51.3%; selectivity ratio [22]: 3.4; Activity (K562 [23]): 22%; Activity (HCT-116 [24]): 18.4% |
| CC12C(=O)C(C)(C(c3ccccc3)=C1c1ccccc1)C1C(=O)N(CCCCN3CCN(c4ccccn4)CC3)C(=O)C12 (stereo unspecified) | 0.6 µM | 1.73 | 36.6 µM | 8.86 µM | 168% | 2.41 | 2.51 | 79% | 1.4% | 12.1 µM | 13.7% | 36.1% | 2.1% | 21.2 µM | 0.7 µM | 50.3 µM | 0.4% | 15.2 µM | 17% | 1.4% | Activity (Rattus norvegicus): inactive; IC50 (A549): 16.1 µM; Activity (HCT-116 [16]): 28%; Ratio IC50 [17]: 2.29; Activity (K562 [18]): 6.3%; selectivity ratio [19]: 2.28; Activity (HMEC-1 [20]): 95.5%; Activity (K562 [21]): 43.8%; selectivity ratio [22]: 4.37; Activity (K562 [23]): 74%; Activity (HCT-116 [24]): 12.1% |
| CC12C(=O)C(C)(C(c3ccccc3)=C1c1ccccc1)C1C(=O)N(CCCCN3CCN(c4ccccc4Cl)CC3)C(=O)C12 (stereo unspecified) | 0.03 µM | 2.63 | 20.6 µM | 4.01 µM | 145% | 0.85 | 1.6 | 61% | 3.5% | 5.29 µM | 8.4% | 67% | 5% | 7.85 µM | 0.1 µM | 8.4 µM | 0.6% | 24.3 µM | 30% | 4.7% | Activity (Rattus norvegicus): inactive; IC50 (A549): 25 µM; Activity (HCT-116 [16]): 29%; Ratio IC50 [17]: 3.33; Activity (K562 [18]): 5.2%; selectivity ratio [19]: 0.82; Activity (HMEC-1 [20]): 86.7%; Activity (K562 [21]): 19.4%; selectivity ratio [22]: 5.77; Activity (K562 [23]): 22%; Activity (HCT-116 [24]): 36.4% |
| CC12C(=O)C(C)(C(c3ccccc3)=C1c1ccccc1)C1C(=O)N(CCCCN3CCN(c4ccccc4F)CC3)C(=O)C12 (stereo unspecified) | 0.007 µM | 1.92 | 17.7 µM | 5.65 µM | 152% | 0.31 | 0.66 | 82% | 1.9% | 7.75 µM | 10.6% | 56.9% | 1.9% | 9.19 µM | 1.7 µM | 18.3 µM | 0.2% | 56.5 µM | 35% | 7.3% | Activity (Rattus norvegicus): inactive; IC50 (A549): 30.7 µM; Activity (HCT-116 [16]): 35%; Ratio IC50 [17]: 0.79; Activity (K562 [18]): 5.2%; selectivity ratio [19]: 0.58; Activity (HMEC-1 [20]): 85.8%; Activity (K562 [21]): 27.3%; selectivity ratio [22]: 3.95; Activity (K562 [23]): 74%; Activity (HCT-116 [24]): 23% |
| CC12C(=O)C(C)(C(c3ccccc3)=C1c1ccccc1)C1C(=O)N(CCCCN3CCN(c4cccc(Cl)c4)CC3)C(=O)C12 (stereo unspecified) | 0.08 µM | 2.55 | 21.9 µM | 4.38 µM | 162% | 0.54 | 1.55 | 82% | 3.5% | 8.3 µM | 9.9% | 59.5% | 2.5% | 8.61 µM | 0.6 µM | 24.8 µM | 0.3% | 40.6 µM | 16% | 7.8% | Activity (Rattus norvegicus): inactive; IC50 (A549): 25.6 µM; Activity (HCT-116 [16]): 26%; Ratio IC50 [17]: 1.38; Activity (K562 [18]): 5.2%; selectivity ratio [19]: 0.86; Activity (HMEC-1 [20]): 86.8%; Activity (K562 [21]): 25.4%; selectivity ratio [22]: 3.54; Activity (K562 [23]): 74%; Activity (HCT-116 [24]): 15.7% |
| CC12C(=O)C(C)(C(c3ccccc3)=C1c1ccccc1)C1C(=O)N(CCCCN3CCN(c4ncccn4)CC3)C(=O)C12 (stereo unspecified) | 0.006 µM | 1.49 | 30.5 µM | 8.08 µM | 134% | 1.64 | 1.83 | 64% | 4.6% | 15.8 µM | 7% | 77.3% | 4.1% | 20.4 µM | 1.5 µM | 22.6 µM | 0.3% | 18.7 µM | 36% | 2.4% | Activity (Rattus norvegicus): inactive; IC50 (A549): 18.1 µM; Activity (HCT-116 [16]): 49%; Ratio IC50 [17]: 2.26; Activity (K562 [18]): 4%; selectivity ratio [19]: 1.69; Activity (HMEC-1 [20]): 91.7%; Activity (K562 [21]): 11.7%; selectivity ratio [22]: 6.6; Activity (K562 [23]): 22%; Activity (HCT-116 [24]): 58.2% |

From ChEMBL document CHEMBL5329202, “New aryl-/heteroarylpiperazine derivatives of 1,7-dimethyl-8,9-diphenyl-4-azatricyclo[5.2.1.02,6]dec-8-ene-3,5,10-trione: Synthesis and preliminary studies of biological activities” (Bioorg Med Chem, 2023)
